Laboratory results reported in patent US11160794B2, “Methods for treating congenital disorders of glycosylation” (Maggie's Pearl, LLC, priority 2018, dated 2021).

How the values were obtained:
[1] = system: Pmm-2 F119L homozygous animals; assay: Chemical stressor exposure of Pmm-2 mutant worms in liquid culture; type: in vivo, nematode (worms); conditions: increasing concentrations
From the text: Because an underlying defect in glycosylation may be manifested when subjected to external chemical stressors, Pmm-2 F119L homozygous animals were subjected to Tunicamycin and Bortezomib drug exposures. Tunicamycin is an inhibitor of N-linked glycosylation and Bortezomib (Bzb) is an irreversible inhibitor of the proteasome. It was contemplated that either or both drugs would affect the Pmm-2 mutants differently compared to wild type (“WT”).

PMM2 = PMM2 enzymatic assay on lysates of compound-treated fibroblasts; type: cell-based, human; conditions: for effect on PMM2 enzymatic activity: human fibroblasts GM20942 (F119L/R148H as printed), 10 and 15 μM, 24 and 48 hours; for PMM2 enzyme activity: above described cell models
Protocol: Cells (WT and PMM2 (GM20942-R141H/F119L) compound heterozygous fibroblasts) were seeded at 45 cells/μL (48 hours) and 60 cells/μL (24 hours) in 96 well plates. Compounds were added while seeding cells. The cells were incubated with the tested compounds for 24 and 48 hours (2 different plates, at 10 and 15 μM). Cells were washed twice with phosphate buffer solution. Cell extracts were prepared by adding 10 μL homogenization buffer (20 mM Hepes, 25 mM KCl, 1 mM dithiothreitol, 10 μg/mL each leupeptin and antipain) into each well. The plate was frozen at −80° C. and thawed (this step was repeated two times). Contents of the well were then transferred to the next well, frozen, and thawed. The previous two steps were repeated again to obtain 3× protein. The plate was centrifuged at 4000 rpm for 10 min. 1 μL of sample was taken for Qubit protein quantification, and assay buffer was added into these wells. The plate was incubated at 37° C., and readings were taken every 30 mins.
PMM2 enzymatic activities were assayed spectrophotometrically at 340 nm by the reduction of NADP+ to NADPH in a reaction mixture incubated at 30° C. for 60 mins in a 96-well plate. Cell lysates were added to 200 μL volume in the following reaction: 50 mM HEPES, pH 7.1, 5 mM MgCl2, 0.5 mM NADP+, 10 μg/mL yeast glucose-6-phosphate dehydrogenase, 20 μM glucose 1,6-bisphosphate, 200 μM mannose 1-phosphate, 10 μg/mL phosphoglucose isomerase, and […]. Glucose 1,6-bisphosphate was used as an activator of PMM2 activity. NADPH formation was calculated from absorbance at 340 nm using the Beer's Law (absorbance=εLc).
A PMM2 enzymatic assay was performed to determine whether the expression level of the variants correlate with the enzymatic activity in the cell. To do this, phosphomannose mutase (PMM) activity was assayed by measuring the reduction of NADP+ to NADPH spectrophotometrically at 340 nm with a plate reader according to methods known in the art. This is achieved by a series of four reactions shown in Scheme 1.
Mannose-1-phosphate and NADP are provided as substrates for the reactions along with phosphomannose isomerase, phosphoglucose isomerase, glucose-6-phosphoate dehydrogenase, and PMM2 from the protein lysate. Additionally, glucose 1,6-bisphosphate is used as an activator of PMM2 activity.
To determine whether these compounds rescue growth by increasing PMM2 enzymatic activity, human fibroblast cells (GM20942) containing the F119L/R148H heterozygous mutations and wild type fibroblast cells were treated with each compound. The cell lysates were subjected to the PMM2 enzymatic reaction.

[2] = system: SEC53 variant (pmm2 mutant) yeast; assay: Yeast growth rescue of SEC53 variant strains (validation of drug screen hits); type: cell-based; conditions: for growth rescue/improvement: maximum dose/effect
Protocol: All strains used herein are in S288c background. Strains were grown in Synthetic Complete (“SC”) or SC drop out media (Sunrise)+2% dextrose at 30° C. unless otherwise noted. Standard genetic procedures of transformation and tetrad analysis were followed to construct strains. SEC53 rescue plasmid (pPL1) was generated by cloning the SEC53 promoter, open reading frame, and terminator sequences into the episomal pRS316 containing the URA3 selectable marker. SEC53 variants were generated by cloning the relevant promoter, GFP or SEC53 gene, and CYC1 terminator sequences into an integrating plasmid containing the LEU2 selectable marker and integrated at the SwaI restriction site into the HO locus. For PMM2 variants, the SEC53 ORF was replaced with a codon-optimized PMM2. Plasmids were generated by Next Interactions or GenScript. Strains were generated by Next Interactions or well-known techniques.
Cells from plates were resuspended in SC media to OD600=1.0, then serial diluted into 50 μL SC+FOA media in 384-well plates at 10^−1, 10^−2, and 10^−3. Plates were incubated at 30° C. and absorbance reading at […] were measured by a plate reader (Molecular Devices SpectraMax M3) at the indicated time points. Plates were vortexed briefly to resuspend cells prior to plate readings. 5-floroortic acid was purchased from US Biological and used at a concentration of 1 mg/L.
125 nL of compounds or DMSO were dispensed into 384-well plates using the Echo acoustic dispenser (LabCyte) to achieve a final concentration of 25 μM. 50 μL of 10^−2 dilution of an OD600=1.0 or 0.5 yeast cell suspensions were dispensed into the 384-well plates containing compounds or DMSO with a MultiFlo automated dispenser (Biotek). Plates were covered and incubated at 30° C. for 16-21 hours until OD600 reaches ˜0.8. Plates were vortexed briefly to resuspend cells prior to reading.
MicroSource Spectrum compounds were reordered from MicroSource Discovery Systems and resuspended in DMSO. 5-125 nL compounds or DMSO were dispensed into 384-well plates and 50 μL of yeast cell suspensions or media were dispensed by multichannel pipettes to achieve the desired concentration. Plates were covered and incubated at 30° C. for 16-23 hours until OD600 reaches ˜0.8. Plates were vortexed briefly to resuspend cells prior to plate readings.
pACT1-F126L, pSEC53-V238M, and pSEC53-F126L haploids and pACT1-F126L/pACT1-R148H, pSEC53-V238M/pSEC53-R148H, and pSEC53-F126L/pSEC53-R148H heterozygous diploids were advanced to a high-throughput drug screen. Screening was done in a 2,560 compound MicroSource Spectrum library collection consisting of FDA approved drugs, bioactive tool compounds, and natural products. Each strain was screened in duplicate and in 384-well plates, with each plate containing 32 wells of the negative control (no drugs) and 24 wells of the positive controls (wild type cells). […] Additionally, there is good correlation between replicates (correlation >0.4 for all panels). With a Z-score cutoff of 2.0, we initially identified six compounds that may be promising and their ability to rescue growth is conserved between the haploid and diploid strains.
These initial hits were further studied for validation. […] At the maximum dose tested, alpha-cyano-4-hydroxycinnamic acid (Compound 1) rescues the F126L allele by 17.7% in haploid and 24.5% in diploid cells.

[3] = pACT1-F126L/R148H heterozygous diploid cells

| Compound | growth of Pmm-2 mutants compared to wild type under drug exposure [1] | effect on PMM2 enzymatic activity (PMM2) | growth rescue/improvement ([2]; pACT1-F126L haploid cells) [%] | growth rescue/improvement [2, 3] [%] | PMM2 enzyme activity (PMM2) | further results |
| --- | --- | --- | --- | --- | --- | --- |
| CC(C)C[C@H](NC(=O)[C@H](Cc1ccccc1)NC(=O)c1cnccn1)B(O)O [Bzb, Bortezomib] | delayed growth |  |  |  |  |  |
| Cc1ccc(C(=O)Nc2ccc(S(=O)(=O)O)c3cc(S(=O)(=O)O)cc(S(=O)(=O)O)c23)cc1NC(=O)c1cccc(NC(=O)Nc2cccc(C(=O)Nc3cc(C(=O)Nc4ccc(S(=O)(=O)O)c5cc(S(=O)(=O)O)cc(S(=O)(=O)O)c45)ccc3C)c2)c1 [suramin hexasodium] |  | no discernible effect | 6.7 | 22.6 |  | growth improvement ([2]; pSEC53-F126L haploid cells): 24.5%; growth improvement ([2]; pSEC53-F126L/R148H heterozygous diploid cells): 47.4%; growth improvement ([2]; pSEC53-V238M haploid cells): 16.1%; growth improvement ([2]; pSEC53-V238M/R148H heterozygous diploid cells): 38.9% |
| N#C/C(=C\c1ccc(O)cc1)C(=O)O [Compound 1, α-cyano-4-hydroxycinnamic acid] |  | rescues the enzymatic activity | 17.7 | 24.5 |  | rescue of growth of SEC53 alleles ([2]; haploid and heterozygous diploid cells, dose response): consistent and dose-dependent rescues |
| Epalrestat [reference compound] |  |  |  |  | increase PMM2 enzyme activity | rescue of yeast growth defect ([2]; above described cell models): rescued yeast growth defect |
| CNc1ccccc1C(=O)N1CCc2c([nH]c3ccccc23)C1=O [rhetsinine, Rhetsinine] |  |  |  |  | increase PMM2 enzyme activity |  |
| Tunicamycin | no major differences in growth |  |  |  |  |  |
